In EPA's aquatic toxicity sets:

Tested on: Tetrahymena pyriformis
Test: 48 h IGC50 (-log10 mol/L); higher = more toxic

Structure (SMILES) | 48 h IGC50 (-log10 mol/L)
CCCCCC/C=C/CO | 3.75
CCCCCOC=O | 2.22
CCOC(=O)c1ccc(C(C)(C)C)cc1 | 4.42
CC(=O)c1ccc(O)cc1C | 3.19
CC(=S)Nc1ccccc1 | 2.99
CCOc1cc(O)ccc1OC | 2.7
CC(=O)CCC(C)=O | 1.6
OCCCBr | 2.07
CCC(=O)N(C)C | 1.43
CCOC(=O)c1ccc(Br)cc1 | 4.33
N#Cc1ccccc1O | 3.04
Oc1c(F)c(F)cc(F)c1F | 4.17
CCOC(=O)Cc1cccs1 | 3.27
O=[N+]([O-])c1ccc(/C=N/O)cc1 | 3.68
N#Cc1cc(Br)c(O)c(Br)c1 | 4.16
CCCCCCC#CC(=O)OC | 4.32
CCCCCCNC(N)=S | 3.86
C=CC(=O)OCCCC | 3.52
COC(=O)c1ccc(Br)cc1 | 3.6
CCCCC/C=C/C(=O)O | 3.21
OCc1ccc(F)cc1 | 2.38
O=[N+]([O-])c1cccc2cccnc12 | 3.08
C=CC(=O)OCCCCCCC | 4.09
CC(=O)c1cccc([N+](=O)[O-])c1 | 3.32
c1ccc2ccccc2c1 | 2.88

Structure (SMILES) | 48 h IGC50 (-log10 mol/L)
Cc1c(O)cccc1[N+](=O)[O-] | 3.78
Brc1ccccn1 | 2.46
CCOC(=O)c1ccc(OC)cc1 | 3.77
CC(C)(C)c1cc(N)cc(C(C)(C)C)c1 | 4.44
O=[N+]([O-])c1ccccc1-c1ccccc1 | 4.3
O=Cc1cccs1 | 2.95
C=C(C)C(=O)OCC | 2.07
CCCC(C)C=O (stereo not given) | 2.53
CCC(O)CC | 1.76
CC(C)(O)c1ccccc1 | 2.43
N#CCC(=O)c1ccco1 | 3.3
CC(C)C=CC=O | 3.82
O=C(O)CCCCl | 2.32
C/C=C(\C)C=O | 2.86
COC(=O)CCCCCCCCCCCC(=O)OC | 4.65
O=C1C=CC(=O)c2c(O)ccc(O)c21 | 5.83
N#Cc1cc([N+](=O)[O-])c(Cl)c([N+](=O)[O-])c1 | 5.66
COC(=O)CCCBr | 3.07
CCCNCCO | 1.32
CC(C)(CN)CO | 2.08
CCCCCBr | 3.48
CCCCCCCC(=O)OC | 3.54
C=CC(C)(C)O | 1.61
Oc1cc(Cl)c(O)cc1Cl | 4.81
CCOC(=O)c1ccc(C)cc1 | 3.68

Structure (SMILES) | 48 h IGC50 (-log10 mol/L)
O=C(c1ccc(O)cc1O)c1ccc(O)cc1O | 3.96
COc1ccc(CO)cc1O | 2.01
O=C(O)c1cc(Br)ccc1Br | 2.69
OCCC(c1ccccc1)c1ccccc1 | 4.04
C=CCOC(=O)CCCCCCCCC | 3.48
COC(=O)c1ccc(OC)cc1O | 3.62
CC#Cc1ccccc1 | 3.19
N#CCCCCBr | 2.79
CCCCC(CC)COC(=O)c1ccc(O)cc1 (stereo not given) | 5.51
C#CCC(O)CC (stereo not given) | 1.6
O=[N+]([O-])c1cccc(Br)c1 | 4.03
CCCCCCCCCO | 3.85
CCCC(Br)C(=O)O (stereo not given) | 2.96
CCCc1ccc(O)cc1 | 3.64
N#Cc1ccc(-c2ccccc2)cc1 | 4.24
CCC(=O)CC(=O)CC | 2.62
O=C(OCc1ccccc1)c1ccccc1 | 4.45
N#CCc1ccc(Cl)cc1 | 3.66
O=C(c1ccccc1O)c1ccccc1O | 4.16
Cc1cc(C)c(O)c(C)c1 | 3.42
Oc1cc(Cl)cc(Cl)c1 | 4.56
CC(C)(C)OC(=O)CCl | 3.85
Cc1ccc(O)cc1C | 3.12
C#CC(O)CC (stereo not given) | 1.82
N#CCCC#N | 1.18

Structure (SMILES) | 48 h IGC50 (-log10 mol/L)
C=COC(=O)/C=C/C | 2.85
CCC(C)CC(=O)O (stereo not given) | 2.77
NCC(O)CN | 1.57
Cc1cc(C)cc(N)c1 | 2.64
CCCCCCOc1ccc(N)cc1 | 4.38
CCCCCC1CCC(=O)O1 (stereo not given) | 3.01
N#Cc1ccccc1C#N | 2.66
c1ccc(Cc2ccncc2)cc1 | 3.63
C#CC(=O)OCC | 4.7
OCCCCCl | 2.24
Nc1ccc([N+](=O)[O-])cn1 | 3.22
COc1ccccc1Cl | 3.22
CCCCNC | 2.32
Nc1c([N+](=O)[O-])cccc1[N+](=O)[O-] | 3.84
CC(C)(C)C(=O)O | 2.75
CC/C=C\CCO | 2.19
C=COC(=O)CCCCCCC | 2.7
COCC(C)N (stereo not given) | 2.17
C=CS(=O)(=O)c1ccccc1 | 4.28
CC(C)c1ccc(N)cc1 | 3.22
OC(c1ccccc1)c1ccccc1 | 3.5
N#CSCc1ccccc1 | 4.05
CCCCC(=O)c1ccccc1 | 3.56
O=C(O)c1cc(Cl)cc(Cl)c1 | 3.27
CC(=O)OC1=CCCCC1 | 2.6

Structure (SMILES) | 48 h IGC50 (-log10 mol/L)
N#C/C=C/c1ccco1 | 2.69
CCCCCl | 2.09
Cc1cc(O)ccc1[N+](=O)[O-] | 4.73
CCSCC | 2.02
O=C(CBr)c1cc2ccccc2oc1=O | 5.66
CCC#CC(O)CC (stereo not given) | 2.97
O=Cc1ccc(F)cc1 | 2.87
NC(N)=NC(N)=Nc1ccccc1 | 2.61
COc1ccccc1C=O | 3.15
N#Cc1cccc(O)c1 | 2.94
CCCCC(=O)OCCC | 3.01
OC/C=C/c1ccccc1 | 2.92
C=CC(=O)OCCC | 3.53
CCC(=O)CC | 1.54
COc1cccc(Cl)c1 | 3.29
Oc1ccc(F)cc1F | 3.6
COc1cccc(C=O)c1 | 3.23
N#CCCBr | 2.5
Clc1cc(Cl)cc(Cl)c1 | 3.87
Nc1cccc(O)c1 | 2.48
CC(N)c1ccccc1 (stereo not given) | 2.82
CCCOC=O | 1.98
CCCCCCC(=O)CCCCCC | 4.52
O=C1C=CC(=O)c2ccccc21 | 5
NCCc1ccc(Cl)cc1 | 3.14

Structure (SMILES) | 48 h IGC50 (-log10 mol/L)
CC(=O)C(C)Cl (stereo not given) | 3.27
CCCC#CCO | 2.62
NC(=O)c1cc(Cl)ccc1[N+](=O)[O-] | 2.68
CCC(N)CC | 2.19
CCCCCCCCNC(N)=S | 4.51
CCCCOC(N)=O | 2.03
O=[N+]([O-])c1ccccc1F | 3.23
CCCNC | 2.19
C=C(C)OC(C)=O | 2.51
O=C(O)CCCCCl | 2.71
O=C(CBr)c1ccsc1 | 5.22
CN(CCO)CCO | 1.17
CCc1ccc(N)cc1 | 3.03
CCN(C)C | 2.09
CCOC(=O)C(NC(C)=O)C(=O)OCC | 1.8
CCCCCCCCC(=O)O | 3.35
COc1cc(C=O)cc(O)c1OC | 2.61
Fc1nc(F)c(F)c(Br)c1F | 2.87
CCCCCCCCCCOC(C)=O | 4.88
C=C(C)CCO | 1.82
O=C(O)c1cccc(O)c1 | 2.19
CCCCCN | 2.52
c1ccnnc1 | 1.59
CC(C)=CC=O | 3.09
CCCCCCC(O)CC (stereo not given) | 3.36

Structure (SMILES) | 48 h IGC50 (-log10 mol/L)
CNc1ccc(C(=O)OC)cc1 | 3.31
CCC(C)(C)N | 2.3
C#CCCCO | 1.58
Cc1cc(O)c(C(C)C)cc1Cl | 4.85
C=CCOC(=O)CC#N | 2.21
Cc1cc(C)c(C)c(O)c1 | 3.36
Cc1ccc(Cl)cc1N | 3.5
Cc1cc(Cl)ncc1[N+](=O)[O-] | 3.42
CCC(=O)NC | 1.47
CCOS(=O)(=O)OCC | 2.3
COc1ccc(C=O)c(Cl)c1O | 3.2
CCC#CC(C)=O | 4.32
O=Cc1ccc([N+](=O)[O-])c(O)c1 | 3.27
C=CCOC(C)=O | 3.48
COC(=O)c1cc(O)cc(O)c1 | 2.86
O=[N+]([O-])c1c(Cl)cc(Cl)cc1Cl | 4.43
CN(C)c1ccc(C=O)cc1 | 3.23
O=Cc1ccc[nH]1 | 2.52
O=Cc1ccoc1 | 3
O=C(O)c1cccc(Cl)c1Cl | 2.59
